Data reported in US20240132485A1, “HETEROCYCLIC CULLIN RING UBIQUITIN LIGASE COMPOUNDS AND USES THEREOF” (CEMM - FORSCHUNGSZENTRUM FÜR MOLEKULARE MEDIZIN GMBH, priority 2020, published 2024).

Columns and labels:
[1] = molecular target: T1, DDB1-CDK12/Cyclin K ternary complex (Homo sapiens, UniProt Q16531+Q9NYV4); assay: NanoBRET fold-change assay (HaloTag_CDK12 / NanoLuc_DDB1 in HEK293T); assay type: cell-based; conditions: 10 μM compound, 10 minutes
T1 construct: expressed in transfected cells; host or cells: HEK293T wildtype cells, transient PEI transfection
Method: This assay measures the interaction/recruitment of CDK12/Cyclin K to DDB1, mechanistically validating the molecular glue pharmacology.
HEK293T wildtype cells are seeded 800 k cells/well (DMEM+10% FBS+1% PS) in a 6-well plate and allowed to attach for ˜7 hours followed by a transient transfection of 1.5 μg HaloTag_CDK12 Plasmid [Table 1] and 0.15 μg NanoLuc_DDB1 plasmid [Table 1] per well using PEI. Cells are incubated at 37° C., 5% CO2, harvested after 24 hours and resuspended in assay media (Opti-MEM Reduced serum media, no phenol red, 4% FBS, 1% PS). Cells are adjusted to 2.3×10^5 cells/ml and treated with HaloTag 618 Ligand at 100 nM or DMSO. 8000 cells are seeded per well in triplicates per compound in a white-walled 384-well plate, one negative control treated with DMSO instead of HaloTag 618 Ligand is seeded in triplicates and the 384-well plate is incubated at 37° C., 5% CO2 overnight. Compound stock solutions are prepared in Opti-MEM−/− (Opti-MEM I Reduced serum media, no phenol red) at 8× and used to treat the cells at a final concentration of 1× at 10 μM. Cells and compounds are incubated for 10 minutes at room temperature followed by addition of NanoBRET Nano-Glo substrate following manufacturer's protocols. The plate is shaken for 30 sec followed by immediate measurement of donor emission (NanoBRET Blue at 460 nm) and acceptor emission (BRET Deep Red at 647 nm) for 0.5 s.

CCNK = assay: NanoLuc-CCNK degradation assay (HEK293T_Nluc_CCNK-tagged cells); assay type: cell-based; conditions: 4 h incubation, HEK293T_Nluc_CCNK-tagged cells; for DC50: read-out: NanoLuc-CCNK degradation DC50 Activity Class
Method: The assay helps to elucidate the mechanistic explanation of the cell killing effect of the compounds of the present invention. Cyclin K is fused to a nanoluciferase, light emission is measured as a proxy of Cyclin K abundance. Potency of Cyclin K degradation and cytotoxicity of KBM7 correlate extremely well, further supporting Cyclin K degradation being the main driver of the cell killing, as opposed to inhibition of CDK12 catalytic activity.
HEK293T_Nluc_CCNK-tagged cells were engineered by integrating a nanoluciferase tag at the N-terminus of the endogenous locus of CCNK using CRISPR-Cas9 technology. Briefly, 5.5 million HEK293T cells were co-transfected by PEI with a 1:1 ratio of cutting vector (sgRNA: […]) and repair template (4 μg total plasmid) as previously described (Brand and Winter, 2019). The repair sequence comprises a cassette of puromycinR-P2A-HA-Nluc-(G4S)3 (P2A: self-cleaving peptide 2A, HA: HA-tag, (G4S)3: flexible linker), surrounded by 20-nucleotide microhomologies matching the genomic locus. After 3 days of incubation, the recombinant population was selected by puromycin treatment (2 μg/ml, 5-day treatment). A monoclonal population was obtained by limiting dilution and cassette integration validated by Sanger sequencing.
HEK293T_Nluc_CCNK-tagged cells were seeded in a white opaque 384-well plate at a density of 8000 cells per well in duplicate, in full medium (Opti-MEM I+4% FBS+1% PS). Cells were treated with compounds in a 10-point titration (range: 0 to 10 μM, 1:4 dilution). After 4 h of incubation, Nano-Glo substrate (Promega), pre-diluted in serum-free medium (Opti-MEM I), was added to the cells (1:500 final dilution). The luminescence signal was directly measured using the multimode plate reader EnVision 2105 (Perkin Elmer).

KBM7 cells (wild-type) = assay: KBM7 CTG EC50 assay (UBE2M wild-type); assay type: cell-based, human; conditions: for EC50: Homo sapiens, KBM-7, 72 h incubation, CellTiter-Glo, read-out: KBM7 CTG EC50 (UBE2M wild-type) Activity Class; for Ratio UBE2M WT to KO: ratio of anti-proliferative activity in KBM7 wild-type versus UBE2M knock-out cells (fold)
Source text: (§1) This is a cell viability assay to measure the desired therapeutic effect, i.e. killing of cancer cells. The UBE2M mutant cell line has impaired activity of the Cullin-RING ligase system due to a hypomorphic mutation in UBE2M, which is required for activation of these E3 ligases. By comparison with WT cells, it is possible to estimate the contribution of Cyclin K degradation (which is reduced in UBE2M mut cells) compared to kinase inhibition of CDK12 (which is unaffected in UBE2M mut cells). Since the UBE2M mutation only reduces CRL function without fully abrogating it, this assay may slightly underestimate the effect of degradation because, at high compound concentrations, degradation may still be observed.
(§2) KBM7 cells (wild-type or harboring α hypomorphic UBE2M mutation (Mayor-Ruiz et al., 2019)) were seeded in a white opaque 384-well plate at a density of 1000 cells per well in duplicate, in full medium (IMDM+10% FBS+1% penicillin-streptomycin). Cells were treated with compounds in a 10-point titration with a dilution factor of 1:4 (range: 0 to 20 μM). After 72 h of incubation, the cell viability was determined using the CellTiter-Glo® 2.0 reactant (Promega), pre-diluted 1:4 in mQ water. The luminescence signal was measured using the multimode plate reader EnVision 2105 (Perkin Elmer).

[2] = test system: KBM7 cells harboring a hypomorphic UBE2M mutation; assay: KBM7 CTG EC50 assay (UBE2M knock-out); assay type: cell-based; conditions: Homo sapiens, KBM-7; 72 h incubation, CellTiter-Glo; read-out: KBM7 CTG EC50 (UBE2M knock-out) Activity Class
Source text: as §1, §2

T1 sequence (Q9NYV4 whole entry): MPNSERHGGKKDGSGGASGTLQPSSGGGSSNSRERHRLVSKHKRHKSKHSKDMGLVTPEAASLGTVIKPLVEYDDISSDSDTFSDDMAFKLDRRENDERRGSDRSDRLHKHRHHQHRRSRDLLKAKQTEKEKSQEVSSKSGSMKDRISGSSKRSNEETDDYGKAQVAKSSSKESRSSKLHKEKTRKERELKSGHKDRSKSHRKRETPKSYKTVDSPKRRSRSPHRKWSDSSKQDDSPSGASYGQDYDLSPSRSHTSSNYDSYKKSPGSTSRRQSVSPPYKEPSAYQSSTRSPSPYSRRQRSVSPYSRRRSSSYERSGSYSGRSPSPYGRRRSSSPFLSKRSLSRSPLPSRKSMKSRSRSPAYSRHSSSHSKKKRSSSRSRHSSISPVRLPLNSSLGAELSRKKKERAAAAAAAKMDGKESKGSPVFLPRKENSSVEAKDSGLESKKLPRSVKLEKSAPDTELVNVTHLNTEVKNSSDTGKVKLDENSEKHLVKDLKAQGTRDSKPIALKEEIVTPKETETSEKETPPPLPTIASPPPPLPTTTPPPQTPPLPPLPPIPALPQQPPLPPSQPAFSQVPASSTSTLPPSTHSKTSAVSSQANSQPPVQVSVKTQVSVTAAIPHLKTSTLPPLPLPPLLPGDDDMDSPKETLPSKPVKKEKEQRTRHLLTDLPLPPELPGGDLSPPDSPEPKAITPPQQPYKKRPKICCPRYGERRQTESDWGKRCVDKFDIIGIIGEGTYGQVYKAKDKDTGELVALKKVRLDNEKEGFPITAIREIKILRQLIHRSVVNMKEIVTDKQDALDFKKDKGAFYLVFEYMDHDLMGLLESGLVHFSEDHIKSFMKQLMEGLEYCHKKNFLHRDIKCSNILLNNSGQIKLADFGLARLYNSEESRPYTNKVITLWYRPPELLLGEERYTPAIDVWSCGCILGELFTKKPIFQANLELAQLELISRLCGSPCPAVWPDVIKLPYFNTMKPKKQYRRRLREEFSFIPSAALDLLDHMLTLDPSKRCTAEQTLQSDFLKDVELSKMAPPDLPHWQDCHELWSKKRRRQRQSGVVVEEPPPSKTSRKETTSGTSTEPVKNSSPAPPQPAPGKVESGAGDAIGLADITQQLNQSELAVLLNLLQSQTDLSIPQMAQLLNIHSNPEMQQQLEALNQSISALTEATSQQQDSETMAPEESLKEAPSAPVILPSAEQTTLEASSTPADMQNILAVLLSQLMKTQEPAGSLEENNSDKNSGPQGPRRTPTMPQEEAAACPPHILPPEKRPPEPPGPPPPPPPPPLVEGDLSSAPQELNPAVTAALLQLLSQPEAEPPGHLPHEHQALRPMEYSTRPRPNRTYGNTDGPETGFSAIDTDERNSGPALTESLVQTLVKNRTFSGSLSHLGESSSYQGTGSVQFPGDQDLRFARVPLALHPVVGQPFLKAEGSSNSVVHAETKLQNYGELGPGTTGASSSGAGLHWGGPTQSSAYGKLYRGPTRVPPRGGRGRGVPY
T1 sequence (Q16531 whole entry): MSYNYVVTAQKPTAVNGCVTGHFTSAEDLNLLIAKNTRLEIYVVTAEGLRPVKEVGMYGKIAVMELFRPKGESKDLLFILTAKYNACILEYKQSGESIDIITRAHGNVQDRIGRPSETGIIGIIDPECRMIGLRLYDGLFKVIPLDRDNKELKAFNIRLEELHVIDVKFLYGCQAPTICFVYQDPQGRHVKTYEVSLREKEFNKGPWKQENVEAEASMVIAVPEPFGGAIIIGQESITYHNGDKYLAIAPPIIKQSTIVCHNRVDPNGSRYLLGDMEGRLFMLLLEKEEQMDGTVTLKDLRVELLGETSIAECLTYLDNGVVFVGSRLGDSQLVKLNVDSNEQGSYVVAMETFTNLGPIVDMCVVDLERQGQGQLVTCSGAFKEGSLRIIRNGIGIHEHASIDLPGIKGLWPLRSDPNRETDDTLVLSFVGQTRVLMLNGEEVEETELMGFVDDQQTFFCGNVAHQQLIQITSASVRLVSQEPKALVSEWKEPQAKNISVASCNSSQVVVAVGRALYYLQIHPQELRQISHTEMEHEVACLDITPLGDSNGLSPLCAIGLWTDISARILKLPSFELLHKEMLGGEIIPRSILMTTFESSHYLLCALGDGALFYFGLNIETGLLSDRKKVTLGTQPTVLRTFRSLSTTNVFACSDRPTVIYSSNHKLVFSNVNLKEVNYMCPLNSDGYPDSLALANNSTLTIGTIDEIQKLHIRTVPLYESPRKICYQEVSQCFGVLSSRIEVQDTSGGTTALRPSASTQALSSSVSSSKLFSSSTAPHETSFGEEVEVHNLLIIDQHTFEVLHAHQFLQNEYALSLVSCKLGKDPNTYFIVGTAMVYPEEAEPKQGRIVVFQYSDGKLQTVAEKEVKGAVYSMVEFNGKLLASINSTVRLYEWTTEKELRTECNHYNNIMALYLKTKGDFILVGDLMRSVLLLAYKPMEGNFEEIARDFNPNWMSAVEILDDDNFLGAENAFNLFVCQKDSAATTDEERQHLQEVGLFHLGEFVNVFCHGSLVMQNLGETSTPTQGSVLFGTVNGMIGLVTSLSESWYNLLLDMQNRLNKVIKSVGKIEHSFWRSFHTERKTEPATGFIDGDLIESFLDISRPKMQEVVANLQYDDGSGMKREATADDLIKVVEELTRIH
T1 sequence (O75909 whole entry partner): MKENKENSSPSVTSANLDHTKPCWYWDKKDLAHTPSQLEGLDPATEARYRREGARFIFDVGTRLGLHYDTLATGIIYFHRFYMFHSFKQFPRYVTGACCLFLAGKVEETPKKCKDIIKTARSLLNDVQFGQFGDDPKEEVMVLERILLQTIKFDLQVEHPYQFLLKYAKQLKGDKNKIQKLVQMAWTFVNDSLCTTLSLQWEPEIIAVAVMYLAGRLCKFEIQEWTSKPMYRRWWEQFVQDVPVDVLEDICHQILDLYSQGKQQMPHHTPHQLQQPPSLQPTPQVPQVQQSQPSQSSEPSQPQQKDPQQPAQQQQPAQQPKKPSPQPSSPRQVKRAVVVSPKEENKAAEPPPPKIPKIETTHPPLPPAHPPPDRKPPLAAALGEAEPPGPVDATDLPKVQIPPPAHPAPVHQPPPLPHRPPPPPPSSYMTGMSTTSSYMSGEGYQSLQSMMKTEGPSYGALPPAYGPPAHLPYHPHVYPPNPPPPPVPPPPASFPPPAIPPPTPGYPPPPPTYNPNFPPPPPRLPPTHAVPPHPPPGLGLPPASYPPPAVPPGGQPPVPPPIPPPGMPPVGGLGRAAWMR

SMILES | NanoBRET fold-change Activity Class [1] | DC50 (CCNK) | EC50 (KBM7 cells (wild-type)) | Ratio UBE2M WT to KO (KBM7 cells (wild-type)) | EC50 [2] | NanoLuc-CCNK degradation DC50 Activity Class (CCNK)
Cc1ccc2c(CC(=O)Nc3ncc(C(C)C)s3)coc2c1C [Example 3-2, 2-(6,7-dimethylbenzofuran-3-yl)-N-(5-isopropylthiazol-2-yl)acetamide] | B (3-4 fold increase) | ≤ 100 nM | ≤ 250 nM | 12.7 | 500 to 1000 nM | –
Cc1cccn2c(CC(=O)Nc3ncc(C(F)(F)F)s3)cnc12 [Example 3-6, 2-(8-methylimidazo[1,2-a]pyridin-3-yl)-N-(5-(trifluoromethyl)thiazol-2-yl)acetamide] | C (2-3 fold increase) | – | ≤ 250 nM | 129.4 | 1000 to 10000 nM | D (10 μM≤DC50<1.0 μM)
Cc1cccn2cc(CC(=O)Nc3ncc(C(F)(F)F)s3)nc12 [Example 3-7, 2-(8-methylimidazo[1,2-a]pyridin-2-yl)-N-(5-(trifluoromethyl)thiazol-2-yl)acetamide] | B (3-4 fold increase) | > 10000 nM | ≤ 250 nM | 42.4 | 1000 to 10000 nM | –
O=C(Cc1cn2cc(Cl)cc(Cl)c2n1)Nc1ncc(C(F)(F)F)s1 [Example 3-8, 2-(6,8-dichloroimidazo[1,2-a]pyridin-2-yl)-N-(5-(trifluoromethyl)thiazol-2-yl)acetamide] | A (greater than 4-fold increase) | ≤ 100 nM | ≤ 250 nM | 51.5 | ≤ 250 nM | –
O=C(Cc1cc2ccccc2s1)Nc1ncc(C(F)(F)F)s1 [Example 3-10, 2-(benzo[b]thiophen-2-yl)-N-(5-(trifluoromethyl)thiazol-2-yl)acetamide] | C (2-3 fold increase) | ≤ 100 nM | ≤ 250 nM | 23.6 | 1000 to 10000 nM | –
CC(C(=O)Nc1ncc(C(F)(F)F)s1)c1cc2ccccc2s1 (centres unmarked) [Example 3-11, 2-(benzo[b]thiophen-2-yl)-N-(5-(trifluoromethyl)thiazol-2-yl)propanamide] | A (greater than 4-fold increase) | ≤ 100 nM | ≤ 250 nM | 9.4 | ≤ 250 nM | –
Cc1c(CC(=O)Nc2ncc(C(F)(F)F)s2)sc2ccccc12 [Example 3-12, 2-(3-methylbenzo[b]thiophen-2-yl)-N-(5-(trifluoromethyl)thiazol-2-yl)acetamide] | D (1-2 fold increase) | > 10000 nM | > 10000 nM | >10 | > 10000 nM | –
O=C(Cc1cccc2ncccc12)Nc1ncc(C(F)(F)F)s1 [Example 3-13, 2-(quinolin-5-yl)-N-(5-(trifluoromethyl)thiazol-2-yl)acetamide] | B (3-4 fold increase) | > 10000 nM | 1000 to 10000 nM | >4 | > 10000 nM | –
Cc1ccc2ncn(CC(=O)Nc3ncc(C(F)(F)F)s3)c2c1 [Example 3-15, 2-(6-methyl-1H-benzo[d]imidazol-1-yl)-N-(5-(trifluoromethyl)thiazol-2-yl)acetamide] | D (1-2 fold increase) | > 10000 nM | 1000 to 10000 nM | >4 | > 10000 nM | –
Cc1ccc(N2CC(C(=O)Nc3ncc(C(F)(F)F)s3)CC2=O)cc1 (centres unmarked) [Example 3-16, 5-oxo-1-(p-tolyl)-N-(5-(trifluoromethyl)thiazol-2-yl)pyrrolidine-3-carboxamide] | C (2-3 fold increase) | – | 250 to 500 nM | >10 | > 10000 nM | C (1.0 μM≤DC50<0.50 μM)
O=C(Nc1ncc(C(F)(F)F)s1)C1CC(=O)N(c2ccc(Cl)cc2)C1 (centres unmarked) [Example 3-18, 1-(4-chlorophenyl)-5-oxo-N-(5-(trifluoromethyl)thiazol-2-yl)pyrrolidine-3-carboxamide] | C (2-3 fold increase) | – | ≤ 250 nM | >10 | > 10000 nM | D (10 μM≤DC50<1.0 μM)
O=C(Nc1ncc(C(F)(F)F)s1)C1CC(=O)N(c2ccccc2Cl)C1 (centres unmarked) [Example 3-20, 1-(2-chlorophenyl)-5-oxo-N-(5-(trifluoromethyl)thiazol-2-yl)pyrrolidine-3-carboxamide] | C (2-3 fold increase) | > 10000 nM | 250 to 500 nM | >10 | > 10000 nM | –
O=C(Nc1ncc(C(F)(F)F)s1)C1CC(=O)N(c2cc(F)cc(F)c2)C1 (centres unmarked) [Example 3-21, 1-(3,5-difluorophenyl)-5-oxo-N-(5-(trifluoromethyl)thiazol-2-yl)pyrrolidine-3-carboxamide] | B (3-4 fold increase) | – | ≤ 250 nM | 44.5 | 1000 to 10000 nM | B (0.50 μM≤DC50<0.10 μM)
O=C(Nc1ncc(C(F)(F)F)s1)C1CC(=O)N(c2ccc(F)c(F)c2)C1 (centres unmarked) [Example 3-23, 1-(3,4-difluorophenyl)-5-oxo-N-(5-(trifluoromethyl)thiazol-2-yl)pyrrolidine-3-carboxamide] | B (3-4 fold increase) | > 10000 nM | ≤ 250 nM | >10 | > 10000 nM | –
O=C(Nc1ncc(C(F)(F)F)s1)C1CC(=O)N(c2ccc3c(c2)CCC3)C1 (centres unmarked) [Example 3-24, 1-(2,3-dihydro-1H-inden-5-yl)-5-oxo-N-(5-(trifluoromethyl)thiazol-2-yl)pyrrolidine-3-carboxamide] | B (3-4 fold increase) | – | ≤ 250 nM | 23.8 | 1000 to 10000 nM | B (0.50 μM≤DC50<0.10 μM)
O=C(Nc1ncc(C(F)(F)F)s1)C1CC(=O)N(c2ccc3c(c2)OCO3)C1 (centres unmarked) [Example 3-25, 1-(benzo[d][1,3]dioxol-5-yl)-5-oxo-N-(5-(trifluoromethyl)thiazol-2-yl)pyrrolidine-3-carboxamide] | B (3-4 fold increase) | > 10000 nM | 250 to 500 nM | >10 | > 10000 nM | –
